Results as given in patent US9266869B2, “Substituted dialkyl(oxido)-lambda4-sulfanylidene nicotinamide derivatives as kinase inhibitors” (Allergan, Inc., priority 2013, dated 2016).

Tests used:
VEGFR2 = VEGFR2 (Homo sapiens (Human), UniProt P35968); experiment: VEGFR2 Cellular Assay (VEGF induced intracellular calcium, FLIPR, HUVEC); type: cell-based; settings: VEGF165 stimulation (10 ng/mL)
Procedure: (§1) VEGFR2 Cellular Assay Automated FLIPR (Fluorometric Imaging Plate Reader) technology was used to screen for inhibitors of VEGF induced increases in intracellular calcium levels in fluorescent dye loaded endothelial cells. HUVEC (human umbilical vein endothelial cells) (Clonetics) were seeded in 384-well fibronectin coated black-walled plates overnight @ 37° C./5% CO2. Cells were loaded with calcium indicator Fluo-4 for 45 minutes at 37° C. Cells were washed 2 times (Elx405, Biotek Instruments) to remove extracellular dye. For screening, cells were pre-incubated with test agents for 30 minutes, at a single concentration (10 uM) or at concentrations ranging from 0.0001 to 10.0 uM followed by VEGF165 stimulation (10 ng/mL). Changes in fluorescence at 516 nm were measured simultaneously in all 384 wells using a cooled CCD camera. Data were generated by determining max-min fluorescence levels for unstimulated, stimulated, and drug treated samples. IC50 values for test compounds were calculated from % inhibition of VEGF stimulated responses in the absence of inhibitor.

VEGFR2 (KDR) = VEGFR2 (KDR) (Homo sapiens (Human), UniProt P35968); experiment: VEGFR2 Kinase Assay; type: biochemical; settings: purified cytoplasmic domain KDR protein, 2.7 μM ATP; read-out: VEGFR2 Enzyme Assay (IC50 nM)
Procedure: VEGFR2 Kinase Assay Biochemical KDR kinase assays were performed in 96 well microtiter plates that were coated overnight with 75 μg/well of poly-Glu-[…]:1) in 10 mM Phosphate Buffered Saline (PBS), pH 7.4. […] Reactions were carried out in 100 μL reaction volumes containing 2.7 μM ATP in kinase buffer (50 mM Hepes buffer pH 7.4, 20 mM MgCl2, 0.1 mM MnCl2 and 0.2 mM Na3VO4). […] Reactions were initiated by the addition 20 ul per well of kinase buffer containing 200-300 ng purified cytoplasmic domain KDR protein (BPS Bioscience, San Diego, Calif.). Following a 15 minute incubation at 30° C., the reactions were washed 2 mls per well PBS-T. 100 μl of a monoclonal anti-phosphotyrosine antibody-peroxidase conjugate diluted 1:10,000 in PBS-T was added to the wells for 30 minutes. Following a 2 mls per well wash with PBS-Tween-20, 100 μl of 0-Phenylenediamine Dihydrochloride in phosphate-citrate buffer, containing urea hydrogen peroxide, was added to the wells for 7-10 minutes as a colorimetric substrate for the peroxidase. […] IC50 values for compound inhibition were calculated directly from graphs of optical density (arbitrary units) versus compound concentration following subtraction of blank values.

VEGF permeability model = experiment: VEGF permeability model, intravitreal injection; type: in vivo; settings: dosed by intravitreal injection
PDGFRβ [1] = biological target: T1, PDGFRβ (Homo sapiens (Human), UniProt P09619); experiment: PDGFRβ Cellular Assay (PDGF-induced intracellular calcium, FLIPR, NHDF-Ad); type: cell-based; settings: PDGF-BB stimulation (30 ng/mL)
Procedure: as §1, with “Automated” for “VEGFR2 Cellular Assay Automated”, “of PDGF-induced” for “of VEGF induced”, “[…]. NHDF-Ad (Normal Human Dermal Fibroblasts, Adult; Lonza)” for “cells. HUVEC (human umbilical vein endothelial cells) (Clonetics)”, “by PDGF-BB” for “by VEGF165”, “stimulation (30” for “stimulation (10”, “of PDGF-BB” for “of VEGF”
Target sequence in this assay (P09619 33-1106): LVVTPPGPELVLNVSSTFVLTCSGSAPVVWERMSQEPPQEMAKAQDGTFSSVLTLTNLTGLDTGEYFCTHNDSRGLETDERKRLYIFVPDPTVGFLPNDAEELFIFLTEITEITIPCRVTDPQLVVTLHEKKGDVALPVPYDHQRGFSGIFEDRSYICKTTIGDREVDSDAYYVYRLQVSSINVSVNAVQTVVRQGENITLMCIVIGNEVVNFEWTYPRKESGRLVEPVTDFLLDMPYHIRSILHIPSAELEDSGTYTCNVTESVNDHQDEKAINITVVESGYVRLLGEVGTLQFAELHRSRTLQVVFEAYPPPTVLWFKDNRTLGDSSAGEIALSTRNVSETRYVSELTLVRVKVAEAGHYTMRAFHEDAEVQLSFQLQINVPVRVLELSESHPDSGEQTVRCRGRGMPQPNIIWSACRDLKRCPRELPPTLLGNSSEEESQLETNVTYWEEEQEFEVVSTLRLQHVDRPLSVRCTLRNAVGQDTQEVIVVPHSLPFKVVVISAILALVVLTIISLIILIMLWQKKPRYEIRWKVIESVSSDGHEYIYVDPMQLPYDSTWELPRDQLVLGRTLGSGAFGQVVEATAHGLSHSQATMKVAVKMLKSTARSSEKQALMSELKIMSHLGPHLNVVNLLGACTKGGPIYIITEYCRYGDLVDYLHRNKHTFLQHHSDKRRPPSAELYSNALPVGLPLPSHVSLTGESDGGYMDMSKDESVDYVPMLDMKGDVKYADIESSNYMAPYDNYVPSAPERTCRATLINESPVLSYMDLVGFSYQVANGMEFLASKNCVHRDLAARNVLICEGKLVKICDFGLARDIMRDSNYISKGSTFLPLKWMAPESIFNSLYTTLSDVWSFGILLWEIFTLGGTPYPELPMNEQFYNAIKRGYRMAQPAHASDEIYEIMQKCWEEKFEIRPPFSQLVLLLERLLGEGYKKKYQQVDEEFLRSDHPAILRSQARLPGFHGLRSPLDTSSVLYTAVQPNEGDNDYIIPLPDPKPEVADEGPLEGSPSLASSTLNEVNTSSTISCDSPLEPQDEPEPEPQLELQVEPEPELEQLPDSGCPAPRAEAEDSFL

PDGFRβ [2] = biological target: T1, PDGFRβ; experiment: PDGFRβ Kinase Assay; type: biochemical; settings: purified cytoplasmic domain PDGFR-b protein, 36 μM ATP; read-out: PDGFRβ Enzyme Assay (IC50 nM)
Procedure: Biochemical PDGFRβ kinase assays were performed in 96 well microtiter plates that were coated overnight with 75 μg of poly-Glu-Tyr (4:1) in 10 mM Phosphate Buffered Saline (PBS), pH 7.4.
PBS-T prior to starting the reaction. Reactions were carried out in 100 μL reaction volumes containing 36 μM ATP in kinase buffer (50 mM Hepes buffer pH 7.4, 20 mM MgCl2, 0.1 mM MnCl2 and 0.2 mM Na3VO4). […] Reactions were initiated by the addition 20 ul per well of kinase buffer containing 200-300 ng purified cytoplasmic domain PDGFR-b protein (Millipore). Following a 60 minute incubation at 30° C., the reactions were washed 2 mls per well PBS-T. 100 μl of a monoclonal anti-phosphotyrosine antibody-peroxidase conjugate diluted 1:10,000 in PBS-T was added to the wells for 30 minutes. Following a 2 mls per well wash with PBS-Tween-20, 100 μl of O-Phenylenediamine Dihydrochloride in phosphate-citrate buffer, containing urea hydrogen peroxide, was added to the wells for 7-10 minutes as a colorimetric substrate for the peroxidase. […] IC50 values for compound inhibition were calculated directly from graphs of optical density (arbitrary units) versus compound concentration following subtraction of blank values.
Target sequence in this assay (P09619 554-1106): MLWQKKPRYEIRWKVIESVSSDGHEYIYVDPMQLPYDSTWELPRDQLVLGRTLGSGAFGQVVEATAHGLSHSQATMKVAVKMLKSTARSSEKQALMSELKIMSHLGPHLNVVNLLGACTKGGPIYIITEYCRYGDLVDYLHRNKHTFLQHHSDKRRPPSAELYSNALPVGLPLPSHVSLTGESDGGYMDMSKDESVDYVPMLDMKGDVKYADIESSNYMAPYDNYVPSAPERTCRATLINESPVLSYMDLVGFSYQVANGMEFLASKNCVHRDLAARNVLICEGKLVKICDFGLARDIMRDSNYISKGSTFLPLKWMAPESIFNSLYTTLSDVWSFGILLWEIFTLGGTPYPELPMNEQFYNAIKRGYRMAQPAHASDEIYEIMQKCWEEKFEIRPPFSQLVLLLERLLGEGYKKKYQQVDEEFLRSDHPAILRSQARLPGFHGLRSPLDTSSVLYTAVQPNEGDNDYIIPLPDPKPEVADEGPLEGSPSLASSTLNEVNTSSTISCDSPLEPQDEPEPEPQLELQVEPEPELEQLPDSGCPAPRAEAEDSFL

Chain of VEGFR2 (KDR) (P35968 786-1356): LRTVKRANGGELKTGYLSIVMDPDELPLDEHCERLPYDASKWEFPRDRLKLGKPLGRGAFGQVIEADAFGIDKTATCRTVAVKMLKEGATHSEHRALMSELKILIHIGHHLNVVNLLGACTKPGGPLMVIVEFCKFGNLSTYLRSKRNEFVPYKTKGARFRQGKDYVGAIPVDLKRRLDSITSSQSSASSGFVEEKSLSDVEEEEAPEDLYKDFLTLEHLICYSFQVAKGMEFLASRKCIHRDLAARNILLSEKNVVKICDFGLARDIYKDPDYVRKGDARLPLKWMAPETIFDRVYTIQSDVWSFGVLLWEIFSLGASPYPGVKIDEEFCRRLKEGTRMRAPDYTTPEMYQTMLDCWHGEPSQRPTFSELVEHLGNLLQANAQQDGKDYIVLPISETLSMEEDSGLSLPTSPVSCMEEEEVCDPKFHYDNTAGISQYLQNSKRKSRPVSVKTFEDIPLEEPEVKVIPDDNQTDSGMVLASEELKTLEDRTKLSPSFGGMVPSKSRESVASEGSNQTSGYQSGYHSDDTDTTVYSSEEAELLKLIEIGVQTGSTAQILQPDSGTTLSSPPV
Chain of VEGFR2 (P35968 20-1356): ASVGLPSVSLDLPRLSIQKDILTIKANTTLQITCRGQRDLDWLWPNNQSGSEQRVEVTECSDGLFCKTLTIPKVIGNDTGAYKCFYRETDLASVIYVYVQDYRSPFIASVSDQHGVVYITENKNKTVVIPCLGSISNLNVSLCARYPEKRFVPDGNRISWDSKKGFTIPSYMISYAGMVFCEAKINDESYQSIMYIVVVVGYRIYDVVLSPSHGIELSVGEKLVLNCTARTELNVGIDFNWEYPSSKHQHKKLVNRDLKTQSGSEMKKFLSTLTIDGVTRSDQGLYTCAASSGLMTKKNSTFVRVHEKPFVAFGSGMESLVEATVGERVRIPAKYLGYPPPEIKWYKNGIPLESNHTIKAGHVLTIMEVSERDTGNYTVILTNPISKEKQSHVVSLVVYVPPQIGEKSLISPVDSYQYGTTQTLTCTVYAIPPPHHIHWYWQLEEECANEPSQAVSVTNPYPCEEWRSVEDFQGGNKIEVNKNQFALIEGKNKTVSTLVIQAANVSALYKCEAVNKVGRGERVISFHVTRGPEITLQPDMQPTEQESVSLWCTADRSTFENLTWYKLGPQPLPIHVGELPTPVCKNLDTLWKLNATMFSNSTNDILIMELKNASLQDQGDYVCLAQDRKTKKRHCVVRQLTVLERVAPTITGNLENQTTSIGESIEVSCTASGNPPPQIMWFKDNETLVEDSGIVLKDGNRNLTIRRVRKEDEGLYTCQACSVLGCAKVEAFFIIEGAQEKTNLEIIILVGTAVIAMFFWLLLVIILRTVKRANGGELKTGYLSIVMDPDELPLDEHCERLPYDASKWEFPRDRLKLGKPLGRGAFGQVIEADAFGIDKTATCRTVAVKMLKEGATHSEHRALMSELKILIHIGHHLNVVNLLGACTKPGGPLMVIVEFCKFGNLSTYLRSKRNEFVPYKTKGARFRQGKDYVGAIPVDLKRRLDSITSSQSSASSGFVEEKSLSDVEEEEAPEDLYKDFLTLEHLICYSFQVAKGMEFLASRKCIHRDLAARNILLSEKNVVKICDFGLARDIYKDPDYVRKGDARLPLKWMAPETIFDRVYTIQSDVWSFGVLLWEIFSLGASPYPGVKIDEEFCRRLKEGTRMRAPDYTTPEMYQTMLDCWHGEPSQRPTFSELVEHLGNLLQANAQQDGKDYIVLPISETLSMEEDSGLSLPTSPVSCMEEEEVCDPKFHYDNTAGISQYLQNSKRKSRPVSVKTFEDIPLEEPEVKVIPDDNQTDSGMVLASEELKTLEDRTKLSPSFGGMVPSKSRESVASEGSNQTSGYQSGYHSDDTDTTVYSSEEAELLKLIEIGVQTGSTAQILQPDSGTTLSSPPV

Structure (SMILES) | IC50 (VEGFR2) [nM] | IC50 (VEGFR2 (KDR)) [nM] | in vivo efficacy in the VEGF permeability model (VEGF permeability model) | IC50 (PDGFRβ [1]) [nM] | IC50 (PDGFRβ [2]) [nM]
COC(=O)CCCCS(C)(=O)=NC(=O)c1cnc(N)c(C#Cc2cccc(NC(=O)c3occc3C)c2)c1 (centres unmarked) [Example 23, Methyl 5-(N-{[6-amino-5-({3-[(3-methyl-2-furoyl)amino]phenyl}ethynyl)pyridin-3-yl]carbonyl}-S-methylsulfonimidoyl)pentanoate] | 1 | 7 | good in vivo efficacy | 31 | 54
COC(=O)CCCCS(C)(=O)=NC(=O)c1cnc(N)c(C#Cc2cccc(NC(=O)c3cccc(C)c3)c2)c1 (centres unmarked) [Example 26, Methyl 5-(N-{[6-amino-5-({3-[(3-methylbenzoyl)amino]phenyl}ethynyl)pyridin-3-yl]carbonyl}-S-methylsulfonimidoyl)pentanoate] | 1 | 4 | good in vivo efficacy | 10 | 11
COC(=O)CCCCS(C)(=O)=NC(=O)c1cnc(N)c(C#Cc2cccc(NC(=O)c3ccc(Cl)c(C(F)(F)F)c3)c2)c1 (centres unmarked) [Example 29, Methyl 5-[N-({6-amino-5-[(3-{[4-chloro-3-(trifluoromethyl)benzoyl]amino}phenyl)ethynyl]pyridin-3-yl}carbonyl)-S-methylsulfonimidoyl]pentanoate] | 6 | 4 |  | 15 | 25
COC(=O)CCCCS(C)(=O)=NC(=O)c1cnc(N)c(C#Cc2cccc(NC(=O)c3cccc(OC)c3)c2)c1 (centres unmarked) [Example 30, Methyl 5-(N-{[6-amino-5-({3-[(3-methoxybenzoyl)amino]phenyl}ethynyl)pyridin-3-yl]carbonyl}-S-methylsulfonimidoyl)pentanoate] | 1 | 5 | good in vivo efficacy | 9 | 14
COC(=O)CCCCS(C)(=O)=NC(=O)c1cnc(N)c(C#Cc2cccc(NC(=O)c3ccc(OC)c(OC)c3)c2)c1 (centres unmarked) [Example 31, Methyl 5-(N-{[6-amino-5-({3-[(3,4-dimethoxybenzoyl)amino]phenyl}ethynyl)pyridin-3-yl]carbonyl}-S-methylsulfonimidoyl)pentanoate] | 4 | 15 |  | 13 | 38
COC(=O)CCCC[S@](C)(=O)=NC(=O)c1cnc(N)c(C#Cc2cccc(NC(=O)c3occc3C)c2)c1 [Example 32, (S)-methyl 5-(N-{[6-amino-5-({3-[(3-methyl-2-furoyl)amino]phenyl}ethynyl)pyridin-3-yl]carbonyl}-S-methylsulfonimidoyl)pentanoate] | 1 | 3 | good in vivo efficacy | 60 | 31
COC(=O)CCCC[S@@](C)(=O)=NC(=O)c1cnc(N)c(C#Cc2cccc(NC(=O)c3occc3C)c2)c1 [Example 33, (R)-Methyl 5-(N-{[6-amino-5-({3-[(3-methyl-2-furoyl)amino]phenyl}ethynyl)pyridin-3-yl]carbonyl}-S-methylsulfonimidoyl)pentanoate] | 1 | 6 | good in vivo efficacy | 86 | 27
COC(=O)CCCCS(C)(=O)=NC(=O)c1cnc(N)c(C#Cc2cccc(C(=O)Nc3cccc(C)c3)c2)c1 (centres unmarked) [Example 34, Methyl 5-[N-({6-amino-5-[(3-{[(3-methylphenyl)amino]carbonyl}phenyl)ethynyl]pyridin-3-yl}carbonyl)-S-methylsulfonimidoyl]pentanoate] | 2 | 7 | good in vivo efficacy | 13 | 15
